Test results from US20240358889A1, “PEPTIDE-CONTAINING HYBRID HYDROGEL FOR BONE REGENERATION” (Ramot at Tel-Aviv University Ltd., priority 2022, published 2024).
Ends that are not written are not given here. * marks the point of attachment. Fmoc = O=C(OCC1c2ccccc2-c2ccccc21)*

Experiment: Rheological studies of the hydrogel (strain, frequency, shear rate, time sweep, step strain)
Type: physicochemical
Conditions: fixed strain 0.1%, frequency 5 Hz, 37° C.

storage modulus G′: 4,708 Pa
Substance: Fmoc-Phe-Phe [FmocFF]
